Source: patent publication US20230142547A1, “COMPOUNDS FOR TREATING OR PREVENTING A CORONAVIRIDAE INFECTION & METHODS AND USES FOR ASSESSING THE OCCURRENCE OF A CORONAVIRIDAE INFECTION” (ABIVAX, priority 2020, published 2023)
Like-named read-outs stand apart in the source and are kept apart here.

What was measured:
[1] = tested on: SARS-CoV2; assay: Inhibition of SARS-CoV2 replication in MucilAir reconstituted human airway epithelium, viral genome by RT-qPCR; assay type: cell-based; settings: for effect on SARS-CoV2 replication (in words): daily treatment, increasing concentrations
[2] = tested on: SARS-CoV2; assay: ABX464 in combination with Remdesivir: SARS-CoV2 viral RNA in HAE by RT-qPCR; assay type: cell-based; settings: FIG. 3B
[3] = tested on: human reconstituted airway epithelial model of bronchial origin; assay type: cell-based; settings: infected HAE, 48h post-infection
[4] = tested on: SARS-CoV-2; assay type: cell-based; settings: 48 hours post-infection, FIG. 2
[5] = Tissue distribution of radioactivity in rat after single oral [14C]-ABX464 (whole-body autoradiography, liquid scintillation counting); assay type: in vivo; settings: for concentration of radioactivity, Aortic wall / concentration of radioactivity, Lung / concentration of radioactivity, Myocardium / concentration of radioactivity, Nasal mucosa / concentration of radioactivity, Oesophageal wall / concentration of radioactivity, Tongue / concentration of radioactivity, Blood / concentration of radioactivity, Plasma: male albino rats, single oral 20 mg/kg; for concentration of radioactivity, Blood / concentration of radioactivity, Plasma: liquid scintillation counting
Experimental: (§1) This study was conducted in order to determine the tissue distribution and rates and routes of excretion of radioactivity in the rat following a single oral administration of [^14C]-ABX464. Analysis was performed using liquid scintillation counting (plasma and excreta) and quantitative whole-body autoradiography.
(§2) All animals received a single oral administration of [^14C]-ABX464 by oral gavage, at a nominal dose level of 20 mg/kg body weight and a dose volume of approximately 5 mL/kg. The target radioactive dose administered was ca 8 MBq/kg body weight.
Radioactivity in Blood and Plasma Whilst under terminal anaesthesia, but before freezing, up to 2 mL of blood was obtained from all animals by cardiac puncture and transferred to tubes pre-coated with K2-EDTA. The residual sample was centrifuged in order to obtain plasma. The radioactivity concentration was measured in blood and plasma by liquid scintillation counting.
For each animal, the legs, tail and whiskers were trimmed off and the frozen carcass set in a block of aqueous 2% (w/v) carboxymethylcellulose. The block was mounted onto the stage of a Leica CM3600 cryomicrotome maintained at ca −20° C. (Leica Microsystems (UK) Ltd) and sagittal sections (nominal thickness 30 μm) were obtained through the carcass to include the following tissues: exorbital lachrymal gland, intra-orbital lachrymal gland, Harderian gland, adrenal gland, thyroid, brain and spinal cord. The sections, mounted on Filmolux 610 Tape (Neschen UK), were freeze-dried in a GVD03 bench-top freeze-drier (Girovac Ltd) and placed in contact with FUJI imaging plates (type BAS-MS, Raytek Scientific Ltd). [^14C]-Blood standards of appropriate activity (also sectioned at a nominal thickness of 30 μm) were placed in contact with all imaging plates.
After exposure in a copper-lined, lead exposure box for 7 days, the imaging plates were processed using a FUJI FLA-5000 radiography system (Raytek Scientific Ltd). Electronic images were analysed using a PC-based image analysis package (Seescan 2 software, LabLogic Ltd). The carbon-14 standards included with each autoradiogram were used to construct calibration lines over a range of radioactivity concentrations.
Wherever possible, the maximum area within a single autoradiogram was defined for each tissue for measurement.
(§3) A suitable scintillation counter was used. Radioassays were performed at least in duplicate. Efficiency correlation curves were prepared and routinely checked by the use of [14-C]toluene and Ultima Gold™ quenched standards (PerkinElmer LAS (UK) Ltd).
Concentration of radioactivity in sample=C (dpm/g)
Specific radioactivity of test substance=S (MBq/mg)
Concentration of radioactivity in sample=(C/60000)/S (μg equiv/g)

[6] = Rates and routes of excretion of radioactivity in rat after single oral [14C]-ABX464; assay type: in vivo
Experimental: as §1, §2, §3

[7] = Severe acute respiratory syndrome coronavirus 2, RTqPCR, mean of duplicates, read-out: % inhibition of viral infection, MEAN
[8] = Severe acute respiratory syndrome coronavirus 2, RTqPCR, replicate N1, read-out: % inhibition of viral infection, N1
[9] = Severe acute respiratory syndrome coronavirus 2, RTqPCR, replicate N2, read-out: % inhibition of viral infection, N2

CCC(CC)COC(=O)[C@H](C)N[P@](=O)(OC[C@H]1O[C@@](C#N)(c2ccc3c(N)ncnn23)[C@H](O)[C@@H]1O)Oc1ccccc1 [Remdesivir, reference compound]
inhibition at 5 µM ([1]; Severe acute respiratory syndrome coronavirus 2, read-out: % inhibition of viral infection, MEAN): 100%
inhibition at 5 µM ([1]; Severe acute respiratory syndrome coronavirus 2, read-out: % inhibition of viral infection, N1): 99.9%
inhibition at 5 µM ([1]; Severe acute respiratory syndrome coronavirus 2, read-out: % inhibition of viral infection, N2): 100%
reduction of viral RNA ([2]; REM alone (5 μM), values from another experiment): 4 log

N#Cc1ccc(Nc2ccc3ccccc3n2)nc1 [ABX300, reference compound]
% inhibition of viral replication ([1]; all tested concentrations (10 μM, 1 μM and 0.1 μM)): 0%
effect on SARS-CoV2 replication (in words) [1]: fails to show a marked effect on viral replication
epithelium integrity measured by TEER (in words) [3]: reduction in epithelium integrity
TCID50 (in words) [4]: very modest effect on the TCID50

FC(F)(F)Oc1ccc(Nc2ccc3cccc(Cl)c3n2)cc1 [ABX464, 8-Chloro-N-(4-(trifluoromethoxy)phenyl)quinolin-2-amine]
inhibition at 0.1 µM [1, 7]: 32.5%
inhibition at 0.1 µM [1, 8]: 26.4%
inhibition at 0.1 µM [1, 9]: 38.5%
inhibition at 1 µM [1, 7]: 93.2%
inhibition at 1 µM [1, 8]: 88.8%
inhibition at 1 µM [1, 9]: 97.7%
inhibition at 5 µM ([1]; Severe acute respiratory syndrome coronavirus 2, 5 μM, RTqPCR, mean of duplicates, read-out: % inhibition of viral infection, MEAN): 95.5%
inhibition at 5 µM ([1]; Severe acute respiratory syndrome coronavirus 2, 5 μM, RTqPCR, replicate N1, read-out: % inhibition of viral infection, N1): 99.4%
inhibition at 5 µM ([1]; Severe acute respiratory syndrome coronavirus 2, 5 μM, RTqPCR, replicate N2, read-out: % inhibition of viral infection, N2): 91.7%
effect on SARS-CoV2 replication (in words) [1]: dose-dependent inhibition of SARS-CoV2 replication
epithelium integrity measured by TEER (in words) [3]: protective effect on the integrity of bronchial epithelium
TCID50 (in words) [4]: dose-dependent decrease of the TCID50
concentration of radioactivity, Aortic wall ([5]; 1 hour): 0.337 μg equivalents per gram
concentration of radioactivity, Lung ([5]; 1 hour): 1.19 μg equivalents per gram
concentration of radioactivity, Myocardium ([5]; 1 hour): 1.28 μg equivalents per gram
concentration of radioactivity, Nasal mucosa ([5]; 1 hour): 0.252 μg equivalents per gram
concentration of radioactivity, Oesophageal wall ([5]; 1 hour): 1.72 μg equivalents per gram
concentration of radioactivity, Tongue ([5]; 1 hour): 0.495 μg equivalents per gram
concentration of radioactivity, Blood ([5]; 1 hour): 0.398 μg equivalents per gram
concentration of radioactivity, Plasma ([5]; 1 hour): 0.461 μg equivalents per gram
concentration of radioactivity, Aortic wall ([5]; 4 hours): 1.59 μg equivalents per gram
concentration of radioactivity, Lung ([5]; 4 hours): 1.89 μg equivalents per gram
concentration of radioactivity, Myocardium ([5]; 4 hours): 1.45 μg equivalents per gram
concentration of radioactivity, Nasal mucosa ([5]; 4 hours): 0.708 μg equivalents per gram
concentration of radioactivity, Oesophageal wall ([5]; 4 hours): 2.72 μg equivalents per gram
concentration of radioactivity, Tongue ([5]; 4 hours): 1.92 μg equivalents per gram
concentration of radioactivity, Blood ([5]; 4 hours): 0.978 μg equivalents per gram
concentration of radioactivity, Plasma ([5]; 4 hours): 1.25 μg equivalents per gram
concentration of radioactivity, Aortic wall ([5]; 8 hours): 1.74 μg equivalents per gram
concentration of radioactivity, Lung ([5]; 8 hours): 1.45 μg equivalents per gram
concentration of radioactivity, Myocardium ([5]; 8 hours): 0.677 μg equivalents per gram
concentration of radioactivity, Nasal mucosa ([5]; 8 hours): 0.585 μg equivalents per gram
concentration of radioactivity, Oesophageal wall ([5]; 8 hours): 0.795 μg equivalents per gram
concentration of radioactivity, Tongue ([5]; 8 hours): 0.689 μg equivalents per gram
concentration of radioactivity, Blood ([5]; 8 hours): 0.807 μg equivalents per gram
concentration of radioactivity, Plasma ([5]; 8 hours): 1.18 μg equivalents per gram
concentration of radioactivity, Aortic wall ([5]; 24 hours): 0.129 μg equivalents per gram
concentration of radioactivity, Lung ([5]; 24 hours): 0.457 μg equivalents per gram
concentration of radioactivity, Myocardium ([5]; 24 hours): 0.143 μg equivalents per gram
concentration of radioactivity, Nasal mucosa ([5]; 24 hours): 0.084 μg equivalents per gram
concentration of radioactivity, Oesophageal wall ([5]; 24 hours): 0.265 μg equivalents per gram
concentration of radioactivity, Tongue ([5]; 24 hours): 0.122 μg equivalents per gram
concentration of radioactivity, Blood ([5]; 24 hours): 0.229 μg equivalents per gram
concentration of radioactivity, Plasma ([5]; 24 hours): 0.203 μg equivalents per gram
increase of affinity of related radioactivity to bind to the cellular partition of blood ([5]; over the study duration, rat, oral 20 mg/kg): 10 fold
binding of related material to melanin ([5]; rat, oral 20 mg/kg): no evidence for the binding
radioactivity in the central nervous system / blood-brain barrier ([5]; rat, oral 20 mg/kg): drug related material crossed the blood-brain barrier, but was subsequently eliminated
systemic and tissue bioavailability by the oral route (in words) ([5]; rat, oral 20 mg/kg): excellent systemic and tissue bioavailability
radioactivity remaining in carcasses ([6]; final sampling time of 168 hours, excretion balance phase): less than 0.5 % of the administered dose
elimination of radioactivity via faeces ([6]; rat, oral 20 mg/kg): 88%
radioactivity excreted via the renal system ([6]; rat, oral 20 mg/kg): less than 5%
total mean recovery of radioactivity ([6]; rat, oral 20 mg/kg): 93%±1.8
orally administered dose absorbed ([6]; rat, oral 20 mg/kg, inferred from excretion): at least 5%
reduction of viral RNA ([2]; 1 μM of ABX464 alone, HAE, RT-qPCR): 1.5 log

O=C(O)[C@H]1O[C@@H](N(c2ccc(OC(F)(F)F)cc2)c2ccc3cccc(Cl)c3n2)[C@H](O)[C@@H](O)[C@@H]1O [ABX464-N-Gluc]
inhibition at 0.1 µM [1, 7]: 0%
inhibition at 0.1 µM [1, 8]: 0%
inhibition at 0.1 µM [1, 9]: 0%
inhibition at 1 µM [1, 7]: 29%
inhibition at 1 µM [1, 8]: 20%
inhibition at 1 µM [1, 9]: 38%
inhibition at 10 µM [1, 7]: 88%
inhibition at 10 µM [1, 8]: 99.9%
inhibition at 10 µM [1, 9]: 76%
effect on SARS-CoV2 replication (in words) [1]: dose-dependent effect
TCID50 (in words) [4]: a decrease is also observed
